Measured values from patent publication US20240067657A1, “AMIDO-SUBSTITUTED PYRIDYL COMPOUNDS AND METHODS OF USE THEREOF FOR THE TREATMENT OF HERPESVIRUSES” (Merck Sharp & Dohme LLC, priority 2020, published 2024).
Where two headings read alike, the source gives them in different places.

Assays:
[1] = system: HSV-1 Strain F in Vero or MRC5 cells; assay: Viral qPCR assay HSV-1 (V0/V1, V2/V3), EC50; format: cell-based; conditions: Human alphaherpesvirus 1, MRC5, MRC5 cells, 10%; read-out: HSV1 Cell (EC50) MRC5 10%
Method: (§1) Viral qPCR Assays (V0/V1)
(§2) MRC5 cells, Vero cells, and MeWo cells were obtained from ATCC and were maintained at 37° C./5% CO2/90% relative humidity in Minimal Essential Medium with 10% fetal bovine serum, […] L-glutamine, 100 units/ml penicillin and 100 ug/ml streptomycin. Assay plates were prepared by dispensing compounds dissolved in DMSO into wells of 384 well collagen-coated plates using an ECHO acoustic dispenser. Each compound was tested in a 10-point, serial 3-fold dilution. Controls included uninfected cells and infected cells treated only with DMSO. Assays were initiated by mixing selected cells, in suspension, with virus, and dispensing 50 μl/well infected cells to pre-plated compounds. Plates were incubated at 37° C./5% CO2/90% relative humidity for ˜72 hrs to permit genomic replication, and infected cells were lysed by the addition of an equal volume of lysis buffer (10 mM Tris-HCl, pH8, 50 mM KCl, 2 mM MgCl2, 0.45% NP-40, 0.45% Tween-20, and 100 μg/ml proteinase K). An aliquot of the lysate was transferred to a 384-well PCR plate and incubated at 56° C. for 1 hour and then at 95° C. for 10 min. Levels of a viral gene and of the cellular control, PPIA (Thermo Fisher Assay ID=Hs04194521_s1), were measured in separate 10 μL qPCR assays using TaqMan® Gene Expression Master Mix (Applied Biosystems), and an 7900HT Fast Real-Time PCR System with 384-Well Block Module. 7-point, serial 10-fold dilutions of a plasmid standard were run on each plate to generate a standard curve, and genome copies numbers were calculated by plotting experimental Ct onto linear regression of the standard curve. Viral genome copy numbers were normalized by cellular control copy number, and compound effects were normalized to the window defined by the controls. Calculated % effects were fit using a 4-parameter algorithm, and EC50 was reported.
(§3) Viral qPCR Assays (V2/V3)
as §2, with “gene” for “gene and of the cellular control, PPIA (Thermo Fisher Assay ID=Hs04194521_s1),”, “in” for “in separate”, “Compound effects on viral” for “Viral”, “number” for “numbers were normalized by cellular control copy number, and compound effects”, “reported. • HCMV: Strain AD169 Street was assayed in MRC-5 cells and was used at 0.05-0.1 pfu/cell. The assays were performed in either growth media or in the same media with 50% fetal bovine serum. Primer-probe set was Thermo Fisher Assay ID=AIFATFK. • VZV: Strain Street was maintained as an infected cell stock in MRC-5 cells. It was assayed in MeWo or MRC5 cells and was used at 0.04-0.1 pfu/cell. […]” for “reported.”

[2] = system: VZV in MeWo or MRC5 cells; assay: Viral qPCR assay VZV (V0/V1, V2/V3), EC50; format: cell-based; conditions: Human alphaherpesvirus 3, MRC5, MRC5 cells, 10%; read-out: VZV Cell (EC50) MRC5 10%
Method: as §1, §2, §3
as §2, with “gene” for “gene and of the cellular control, PPIA (Thermo Fisher Assay ID=Hs04194521_s1),”, “in” for “in separate”, “Compound effects on viral” for “Viral”, “number” for “numbers were normalized by cellular control copy number, and compound effects”, “reported. • HCMV: Strain AD169 Street was assayed in MRC-5 cells and was used at 0.05-0.1 pfu/cell. The assays were performed in either growth media or in the same media with 50% fetal bovine serum. Primer-probe set was Thermo Fisher Assay ID=AIFATFK. • VZV: Strain Street was maintained as an infected cell stock in MRC-5 cells. It was assayed in MeWo or MRC5 cells and was used at 0.04-0.1 pfu/cell. […]” for “reported.”

[3] = system: HCMV Strain AD169 in MRC-5 cells; assay: Viral qPCR assay HCMV (V0/V1, V2/V3), EC50; format: cell-based
Method: as §1, §2, §3
as §2, with “gene” for “gene and of the cellular control, PPIA (Thermo Fisher Assay ID=Hs04194521_s1),”, “in” for “in separate”, “Compound effects on viral” for “Viral”, “number” for “numbers were normalized by cellular control copy number, and compound effects”, “reported. • HCMV: Strain AD169 Street was assayed in MRC-5 cells and was used at 0.05-0.1 pfu/cell. The assays were performed in either growth media or in the same media with 50% fetal bovine serum. Primer-probe set was Thermo Fisher Assay ID=AIFATFK. • VZV: Strain Street was maintained as an infected cell stock in MRC-5 cells. It was assayed in MeWo or MRC5 cells and was used at 0.04-0.1 pfu/cell. […]” for “reported.”

[4] = molecular target: T1, Human cytomegalovirus DNA polymerase (Human cytomegalovirus, UniProt P08546); assay: HCMV polymerase assay (AlphaLISA, IC50); format: biochemical; conditions: polymerase assay of Example 190
T1 construct: made in house; host or cells: SF21 insect cells (baculovirus vector)
T1 sequence (P08546 whole entry): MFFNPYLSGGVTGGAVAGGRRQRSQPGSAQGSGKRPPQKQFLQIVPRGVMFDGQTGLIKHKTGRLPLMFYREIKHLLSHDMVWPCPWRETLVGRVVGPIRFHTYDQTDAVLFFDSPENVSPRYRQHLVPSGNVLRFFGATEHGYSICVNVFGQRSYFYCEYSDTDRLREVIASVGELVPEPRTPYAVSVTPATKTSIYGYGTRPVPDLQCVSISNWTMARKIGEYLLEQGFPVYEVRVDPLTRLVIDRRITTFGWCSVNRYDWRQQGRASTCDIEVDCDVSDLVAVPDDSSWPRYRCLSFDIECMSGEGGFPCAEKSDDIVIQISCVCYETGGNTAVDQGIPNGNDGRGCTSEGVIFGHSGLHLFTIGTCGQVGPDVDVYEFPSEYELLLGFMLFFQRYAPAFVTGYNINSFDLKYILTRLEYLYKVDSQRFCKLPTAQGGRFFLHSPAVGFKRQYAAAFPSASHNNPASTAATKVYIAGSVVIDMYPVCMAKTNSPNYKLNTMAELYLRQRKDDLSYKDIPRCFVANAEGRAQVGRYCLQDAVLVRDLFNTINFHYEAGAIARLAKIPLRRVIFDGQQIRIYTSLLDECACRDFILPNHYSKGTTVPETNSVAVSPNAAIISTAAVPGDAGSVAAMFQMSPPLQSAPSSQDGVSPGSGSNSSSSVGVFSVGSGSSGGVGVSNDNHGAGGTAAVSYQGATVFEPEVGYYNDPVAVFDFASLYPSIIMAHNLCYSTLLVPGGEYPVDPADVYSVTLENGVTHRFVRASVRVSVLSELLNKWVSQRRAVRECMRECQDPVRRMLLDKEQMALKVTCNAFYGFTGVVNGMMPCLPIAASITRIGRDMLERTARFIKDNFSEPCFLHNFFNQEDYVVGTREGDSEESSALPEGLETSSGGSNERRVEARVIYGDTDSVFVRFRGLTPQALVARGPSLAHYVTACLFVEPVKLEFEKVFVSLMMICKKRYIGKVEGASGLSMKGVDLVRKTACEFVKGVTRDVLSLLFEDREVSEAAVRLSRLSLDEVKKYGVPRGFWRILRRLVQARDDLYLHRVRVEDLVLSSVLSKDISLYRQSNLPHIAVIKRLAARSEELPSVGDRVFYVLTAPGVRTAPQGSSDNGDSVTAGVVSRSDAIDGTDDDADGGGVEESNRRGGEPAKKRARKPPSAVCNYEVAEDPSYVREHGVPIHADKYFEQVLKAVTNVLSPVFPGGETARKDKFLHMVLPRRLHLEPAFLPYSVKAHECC
Method: Human cytomegalovirus and varicella zoster virus DNA polymerases were expressed via baculovirus vector in SF21 cells and purified. Heterodimeric nucleic acid substrate used in the herpesvirus polymerase reactions was generated by annealing a 59-mer template to a 17-mer digoxigenin-labeled primer. Polymerase (HCMV final concentration of 0.2 nM; VZV final concentration of 0.4 nM) was combined with an inhibitor compound or DMSO in assay buffer (10 mM HEPES, pH 7.5, 25 mM KCl, 25 mM NaCl, 5 mM MgCl2, 5% glycerol, 0.67 mg/ml bovine serum albuminutes, and 1 mM tris(2-carboxyethyl)phosphine), and this mixture was pre-incubated for 30 minutes at room temperature in 384-well microtiter plates. The polymerization reaction was initiated by the addition of template/primer substrate (final concentration: 1.6 nM), and dNTPs (final concentration: 24 nM dCTP, 24 nMdGTP, 16 nM dATP, 16 nM dTTP, and 0.8 nM biotin-dUTP). After 60 minutes incubation at 37° C., reactions were terminated with quench buffer (25 mM HEPES pH 7.5, 100 mM NaCl, 0.25% Tween-20, 12 mM EDTA, and 1 mg/ml bovine serum albumin). Incorporation of biotinylated UTP was detected with 2.5-5 ug/ml anti-DIG AlphaLISA acceptor beads and 5-10 ug/ml streptavidin AlphaLISA donor beads (Perkin Elmer). Compound effects were normalized to the window defined by the controls (DMSO only and pre-quenched wells), and were fit using a 4-parameter algorithm to report an IC50.

[5] = Human betaherpesvirus 5, AD169, MRC5, viral qPCR assay of Example 191, read-out: HCMV Cell (EC50)

SMILES | IC50 [4] [nM] | EC50 [1] [nM] | EC50 [2] [nM] | EC50 [3, 5] [nM] | EC50 ([3]; Human betaherpesvirus 5, AD169, MRC5, read-out: HCMV Cell (EC50)) [nM]
CC(=O)N1CCC(Oc2cc(C(=O)NCc3ccc(Cl)cc3)ncc2-c2cnn(C)n2)CC1 [Compound 7] | 122 | 530 | 707 | 552 | 
Cc1cc(-c2cnc(C(=O)NCc3ccc(Cl)cc3)cc2O[C@H]2CCN3C(=O)OC[C@@H]3C2)sn1 [Compound 23] | 1.16 | 25.7 | 59.6 | 102 | 
CC(=O)N1CCC(Oc2cc(C(=O)NCc3ccc(Cl)cc3)ncc2-c2cnsc2)CC1 [Compound 47] | 136 |  |  | 1160 | 
CC(=O)N1CCC(Oc2cc(C(=O)NCc3ccc(Cl)cc3)ncc2-c2cn(C)cn2)CC1 [Compound 50] | 37.3 | 181 | 243 | 461 | 
CC(=O)N1CCC(Oc2cc(C(=O)NCc3ccc(Cl)cc3)ncc2-c2cncs2)CC1 [Compound 51] | 48.5 | 164 | 170 | 369 | 
CC(=O)N1CCC(Oc2cc(C(=O)NCc3ccc(Cl)cc3)ncc2-c2cnoc2)CC1 [Compound 53] | 56.5 |  |  | 1840 | 
CC(=O)N1CCC(Oc2cc(C(=O)NCc3ccc(Cl)cc3)ncc2-c2cn(C)c(CCO)n2)CC1 [Compound 55] | 65.4 |  |  | 781 | 
CC(=O)N1CCC(Oc2cc(C(=O)NCc3ccc(Cl)cc3)ncc2-c2ccn(CS(C)(=O)=O)n2)CC1 [Compound 56] | 68.8 | 847 | 1430 | 687 | 
CC(=O)N1CCC(Oc2cc(C(=O)NCc3ccc(Cl)cc3)ncc2-c2cnsn2)CC1 [Compound 58] | 155 |  |  | 1810 | 
CC(=O)N1CCC(Oc2cc(C(=O)NCc3ccc(Cl)cc3)ncc2-c2cn(C)nn2)CC1 [Compound 59] | 151 |  |  | 976 | 
C[C@@H]1CN(C)CCN1c1cc(C(=O)NCc2ccc(Cl)cc2)nc(-c2cnn(CCO)c2)c1 [Compound 177] | 601 |  |  |  | 1410

Now from value to compound, other results behind:

IC50 [4] [nM] | SMILES | EC50 [1] [nM] | EC50 [2] [nM] | EC50 [3, 5] [nM] | EC50 ([3]; Human betaherpesvirus 5, AD169, MRC5, read-out: HCMV Cell (EC50)) [nM]
197 | CC(=O)N1CCC(Oc2cc(C(=O)NCc3ccc(Cl)cc3)ncc2-c2ccsn2)CC1 [Compound 60] |  |  | 1490 | 
8.76 | O=C(NCc1cc(F)c(Cl)c(F)c1)c1cc(O[C@H]2CCN3C(=O)OC[C@@H]3C2)c(-c2cnn(C(F)F)c2)cn1 [Compound 80] | 247 | 401 | 248 | 
12 | O=C(NCc1ccc(Br)cc1)c1cc(O[C@H]2CCN3C(=O)OC[C@@H]3C2)c(-c2cnn(C(F)F)c2)cn1 [Compound 83] | 274 | 147 | 549 | 
65.3 | O=C(NCc1ccc(Cl)cc1Cl)c1cc(O[C@H]2CCN3C(=O)OC[C@@H]3C2)c(-c2cnn(C(F)F)c2)cn1 [Compound 85] | 1640 | 4710 | 888 | 
187 | O=C(NCc1ccc(I)cc1)c1cc(O[C@H]2CCN3C(=O)OC[C@@H]3C2)c(-c2cnn(C(F)F)c2)cn1 [Compound 89] |  |  | 1520 | 
407 | Cc1cnc(C(=O)NCc2ccc(Cl)cc2)cc1OC1CCC(=O)N(C)CC1 (centres unmarked) [Compound 99] |  |  | 4010 | 
273 | O=C(NCc1ccc(C(F)(F)F)cc1)c1cc(O[C@H]2CCN3C(=O)OC[C@@H]3C2)c(-c2cnn(C(F)F)c2)cn1 [Compound 104] |  |  | 5980 | 
38.8 | O=C(NCc1ccc(Cl)cc1)c1cc(O[C@H]2CCN3C(=O)OC[C@@H]3C2)c(N2CC3(CC(O)C3)C2)cn1 [Compound 118] |  |  | 579 | 
65.2 | CC(C)(N)C1CCN(c2cnc(C(=O)NCc3ccc(Cl)cc3)cc2O[C@H]2CCN3C(=O)OC[C@@H]3C2)C1 (some centres unmarked) [Compound 119] |  |  | 747 | 
36.5 | CC(C)(O)C1CN(c2cnc(C(=O)NCc3ccc(Cl)cc3)cc2O[C@H]2CCN3C(=O)OC[C@@H]3C2)C1 [Compound 121] |  |  | 257 | 
160 | CC(C)(O)C12CC(C1)N(c1cnc(C(=O)NCc3ccc(Cl)cc3)cc1O[C@H]1CCN3C(=O)OC[C@@H]3C1)C2 [Compound 123] |  |  | 1310 | 
804 | CS(=O)(=O)c1cnc(C(=O)NCc2ccc(Cl)cc2)cc1O[C@H]1CCN2C(=O)OC[C@@H]2C1 [Compound 147] |  |  | 12700 | 
135 | CC(=O)N1CCC(Oc2cc(C(=O)NCc3ccc(Cl)cc3)ncc2-c2cnn(C(F)F)c2)CC12CC2 (centres unmarked) [Compound 160] |  |  | 1400 | 
107 | COCCOC(=O)N(Cc1ccc(Cl)cc1)C(=O)c1cc(O[C@H]2CCN3C(=O)OC[C@@H]3C2)c(-c2cnn(C(F)F)c2)cn1 [Compound 179] |  |  | 1390 | 
201 | CN1CCC(C(=O)OCN(Cc2ccc(Cl)cc2)C(=O)c2cc(O[C@H]3CCN4C(=O)OC[C@@H]4C3)c(-c3cnn(C(F)F)c3)cn2)CC1 [Compound 183] |  |  | 150 | 
